# Measurements published in publication PMC12284294 (iScience, 2025).
# Legend:
# [1] = system: FPR1, FPR2, FPR3, PMN; type: cell-based, human
# [2] = biological target: T1, FPR1 (Homo sapiens, UniProt P21462); type: cell-based
# T1 construct: expressed in transfected cells; host or cells: HEK293T
# T1 sequence (P21462 1-350): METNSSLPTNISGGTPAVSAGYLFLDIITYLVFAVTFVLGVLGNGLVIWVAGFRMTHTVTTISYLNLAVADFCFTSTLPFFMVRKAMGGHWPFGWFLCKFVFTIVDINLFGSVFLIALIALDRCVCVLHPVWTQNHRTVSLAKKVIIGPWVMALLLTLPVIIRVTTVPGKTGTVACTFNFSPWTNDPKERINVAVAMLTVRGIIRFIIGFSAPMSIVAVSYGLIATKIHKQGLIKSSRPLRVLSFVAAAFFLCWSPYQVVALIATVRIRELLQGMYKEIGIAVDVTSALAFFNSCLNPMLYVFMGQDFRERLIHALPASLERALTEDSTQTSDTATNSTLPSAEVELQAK
# [3] = system: human polymorphonuclear granulocytes (PMN; neutrophils); type: cell-based
sequence,measurement,setting,value
"GCLIGAEYVNNSYEC [Omicron Variant SCoV2_52, 15mer of Omicron spike pool library]",Match with activator (region): Receptor,[1],PMN + FPR1
same,significant FPR1 activators (group of the spike peptide pool screening),[2],significant FPR1 activators
same,FPR1 calcium activation in library screening,"[2]; individual peptides 10 μM, n = 3",activator
same,significant PMN activators (group of the spike peptide pool screening),"[3]; SARS-CoV-2 omicron B.1.1.529 spike pool peptides, 10 µM, PMN, n=6",significant PMN activators
same,neutrophil calcium mobilization in library screening,"[3]; individual peptides 10 μM, n = 6",activator
